Consider one molecule from patent US12569506B2, “Methods of treating osteonecrosis with LLP2A-bisphosphonate compounds” (The Regents of the University of California, priority 2016, dated 2026).

For this experiment, the system named is dexamethasone-treated mice. The format is in vivo, BALB/c mice. The settings on record: for Samples with three or more osteonecrosis characteristics (number/total) / Samples with three or more osteonecrosis characteristics (percent): day 90. The method, then: FIG. 7. Prevalence of osteonecrosis in dexamethasone-treated mice. Mice were treated for 90 days with dexamethasone (Dex), 4 mg/l in drinking water or placebo (PL) (fresh water). At day 30, the Dex-treated mice were re-randomized to Dex alone, Dex+250 μg/kg LLP2A-Ale, Dex+500 μg/kg LLP2A-Ale, and Dex+750 μg/kg LLP2A-Ale. The LLP2A-Ale treatments were given on days 30, 45, 60, and 75. All mice were euthanized at day 90. Right and left distal femurs were fixed in 10% neutral buffer formalin and decalcified. The specimens were dehydrated, embedded in paraffin, cut into 5 micron sections and H&E stained. The sections were evaluated for osteonecrosis by bright light microscopy using modified criteria reported by Yang et al., J. Orthop. Res., 27:169-75 (2009)), which defines osteonecrosis by the presence of the five following characteristics: (1) empty lacunae, (2) pyknotic osteocyte nuclei in areas of empty lacunae and necrosis of adjacent bone marrow, (3) presence of excessive fat cells in the bone marrow, (4) cartilage degradation, and (5) presence of fibrin thrombi in the blood vessels. Each GC-treated group and placebo group were assessed for all five osteonecrosis characteristics or the presence of at least three of the five osteonecrosis characteristics described above.
The efficacy of LLP2A-Ale was evaluated over a 90 day study using a mouse model of glucocorticoid-induced osteonecrosis. Seven week-old male mice (BALB/c (n=80, Jackson laboratories, USA) were housed in a sanitary ventilated animal room maintained at 20° C. with a 12-hour light/dark cycle. All animals were handled according to the USDA animal care guidelines with the approval of the UC Davis Committee on Animal Research. The mice were given water and standard commercial rodent chow (22/5 Rodent Diet; Teklad, Madison, WI) ad libitum. The animals were weight randomized to either a placebo group (fresh water) or glucocorticoid only (4 mg/L dexamethasone (Dex) in drinking water) and treated for 90 days. At day 30, the Dex-treated mice were then re-randomized to Dex alone, Dex+250 μg/kg LLP2A-Ale, Dex+500 μg/kg LLP2A-Ale and Dex+750 μg/kg LLP2A-Ale. The LLP2A-Ale treatments were given on days 30, 45, 60 and 75. Additionally, 0.1 mg/kg methotrexate was administered twice weekly by subcutaneous injection from day 1-42 in all groups receiving glucocorticoid.
All the mice were euthanized at day 90. The body weights of all the study animals were assessed each week. If the study animals had 10% loss of body weight compared to the previous week, the dose of dexamethasone was reduced to 2 mg/L, until weight gain was observed. All of the animals were injected with calcein (30 mg/kg) and alizarin red (20 mg/kg) at 7 and 2 days before euthanization.
Both the right and left distal femurs were fixed in 10% neutral buffered formalin and were shaken for 3 days, then decalcified in 5% EDTA until the bones were fully decalcified. The specimens were then processed in ascending concentrations of ethanol and embedded in paraffin. Tissue sections were cut into 5 microns sections, stained with hematoxylin and eosin and evaluated for the presence of osteonecrosis by bright field microscopy at 20× magnification. Experimental methods are also described in Mohan et al., Calif Tissue Int (2016) doi:10.1007/s00223-016-0195-6, which is incorporated herein by reference in its entirety for all purposes. Osteonecrosis was detected using modified criteria reported by Yang el al., (a mouse model for glucocorticoid-induced osteonecrosis: Effect of a steroid holiday. J Orthop Res. 2009; 27:169-75) which defines osteonecrosis as requiring all of the following changes: (1) empty lacunae, (2) pyknotic osteocyte nuclei in areas of empty lacunae and necrosis of adjacent bone marrow, (3) presence of excessive fat cells in the bone marrow, (4) cartilage degradation and (5) presence of fibrin thrombi in the blood vessels. […]

Where [1] appears, read: Dex + LLP2A-Ale 250 μg/kg on days 30, 45, 60, 75.
Setting [2] is: Dex + LLP2A-Ale 500 μg/kg on days 30, 45, 60, 75.
Where [3] appears, read: LLP2A-Ale 750 μg/kg on days 30, 45, 60, 75.

Read-outs that look alike come from different tables or passages of the source.

Consider `Cc1ccccc1NC(=O)Nc1ccc(CC(=O)N[C@@H](CCCCNC(=O)/C=C/c2cccnc2)C(=O)N[C@@H](CCCC(=O)O)C(=O)NC2(C(=O)NCCOCCOCCNC(=O)CCC(=O)NCCOCCOCCNC(=O)CCC(=O)N[C@@H](CCCCNC(=O)[C@H](N)CSC3CC(=O)N(CC4CCC(C(=O)NCCCC(O)(P(=O)(O)O)P(=O)(O)O)CC4)C3=O)C(N)=O)CCCCC2)cc1` (stereo partly shown) [LLP2A-Ale], for which the “Samples with three or more osteonecrosis characteristics (number/total)” value runs as follows: under setting [1], 12/16; under setting [2], 9/16; under setting [3], 11/16. Moreover, the “Samples with three or more osteonecrosis characteristics (percent)” value is listed as 75% under setting [1], 56% under setting [2] and 69% under setting [3]. Under “Dex alone vs Dex+LLP2A-Ale groups, day 90 (FIG. 7)”, the “Number of mice per group showing all five (or at least three) osteonecrosis characteristics” value was “decreased”.
